Data from patent US5604233A, “Lactone stable formulation of 7-ethyl camptothecin and methods for uses thereof” (priority 1994, dated 1997).
Entries after “also recorded” stand apart in the source; their conditions may differ. Where two headings read alike, the source gives them in different places.

What was measured:
[1] = cited from earlier work; for sporadic toxicities: relative to parent compound
[2] = cited from earlier work
topoisomerase I [3] = conditions: P388 cells; cited from earlier work
DNA single-strand breaks = conditions: cells exposed to HECPT; cited from earlier work
[4] = Pharmacokinetics of CPT-11 and HECPT, 5-day continuous infusion of CPT-11 (Ohe et al.); type: in vivo, human; conditions: e.g., above 30 mg/m^2/d
Text: Initially, patients may be treated in a dose escalation protocol to determine the maximal tolerated dose of the ECPT formulation. […] For the purpose of this invention, "AUC" is defined as "area under the curve" and "CpMax" is defined as "the maximum plasma concentrate at the end of I.V.

[5] = cited from earlier work; remark: listed apart in the source
[6] = after CPT-11 versus HECPT administration; cited from earlier work
P388 tumor = conditions: intermittent bolus days 1, 5, 9, i.p.; cited from earlier work
L1210 leukemia = conditions: 10-100 mg/kg intraperitoneally; cited from earlier work
[7] = tested on: Topoisomerase I purified from human colon carcinoma cells or calf thymus; conditions: cited from earlier work
topoisomerase I [8] = conditions: cited from earlier work
MOLT3 cells = conditions: cited from earlier work
[9] = Fractional amounts of lactone species of CPT-11 and HECPT (Rothenburg et al.); type: in vivo, human; conditions: Table 4
Text: Fractional Amounts of Lactone Species of CPT-11 and HECPT as
Function of Increasing Single Dose LV. From Rothenburg et al.

human tumors = conditions: nude mice xenografts; cited from earlier work
Small Cell Lung Cancer = conditions: 100 mg/m^2/week; cited from earlier work
[10] = cited from earlier work; remark: listed apart in the source
Cervical cancer = conditions: 100 mg/m^2 weekly, 150 mg/m^2 weeks; cited from earlier work
[11] = tested on: Refractory or Relapsed Small Cell Lung Ca; conditions: 100 mg/m^2 weekly; cited from earlier work
Leukemia/Lymphoma = conditions: cited from earlier work
Colon cancer = conditions: 100 mg/m^2/week or 150 mg/m^2/Q 2 wks; cited from earlier work
[12] = tested on: Untreated Non Small Cell Lung Cancer; conditions: 100 mg/m^2 weekday; cited from earlier work
Tumor = conditions: cited from earlier work; for Toxicity: * dose limiting toxicity
[13] = U.S. Pat. No. 4,713,246; cited from earlier work
preclinical tumor models = conditions: cited from earlier work
[14] = cited from earlier work; remark: listed apart in the source
[15] = mice; cited from earlier work
[16] = Phase II; cited from earlier work
[17] = first Rothenberg line, no dose given

In the case of `CC[C@@]1(O)C(=O)OCc2c1cc1n(c2=O)Cc2cc3c(CN(C)C)c(O)ccc3nc2-1` [topotecan], the “activity relative to parent compound” value ([1]; human, in vivo) is listed as “retain significant activity of the parent compound” and the sporadic toxicities [1] is listed as “less sporadic toxicities”.
In the case of `CCc1c2c(nc3ccc(O)cc13)-c1cc3c(c(=O)n1C2)COC(=O)[C@]3(O)CC` [HECPT, 10-hydroxy 7-ethyl camptothecin], the AUC ([2]; CPT-11 25 mg/m^2/dx5) is given as 1080 ng·h/mL, the CpMax ([2]; CPT-11 25 mg/m^2/dx5) is given as 0.0104 µg/mL and the AUC ([2]; CPT-11 30 mg/m^2/dx5) is given as 960 ng·h/mL. For the same compound, the AUC ([2]; CPT-11 35 mg/m^2/dx5) was 910 ng·h/mL, the CpMax ([2]; CPT-11 35 mg/m^2/dx5) was 0.0068 µg/mL and the AUC ([2]; CPT-11 40 mg/m^2/dx5) was 860 ng·h/mL. For the same compound, the CpMax ([2]; CPT-11 40 mg/m^2/dx5) was 0.0080 µg/mL, the “toxicity of HECPT relative to CPT-11 (suggested)” value ([2]; Ohe et al.) was “more toxic moiety” and the “correlation between HECPT pharmacokinetics and dose or CPT-11 pharmacokinetics and toxicity” value ([2]; human subjects) was “lack of correlation”. The “inhibitory activity against topoisomerase I relative to CPT-11” value (topoisomerase I [3]) was 3600 fold, the “greatest quantitative biochemical effect” value (DNA single-strand breaks) was “DNA single-strand breaks that occur during the S-phase” and the “CpMax of HECPT with increases in dose of CPT-11” value [4] was “decrease”. The AUC ([5]; CPT-11 50 mg/m^2/wkx4) was 195.5 ng·h/mL, the CpMax ([5]; CPT-11 50 mg/m^2/wkx4) was 0.0393 µg/mL and the AUC ([5]; CPT-11 100 mg/m^2/wkx4) was 214.8 ng·h/mL. For the same compound, the CpMax ([5]; CPT-11 100 mg/m^2/wkx4) was 0.0316 µg/mL, the AUC ([5]; CPT-11 150 mg/m^2/wk X4) was 123.2 ng·h/mL and the CpMax ([5]; CPT-11 150 mg/m^2/wk X4) was 0.0367 µg/mL. For the same compound, the AUC ([5]; CPT-11 180 mg/m^2/wk X4) was 232.8 ng·h/mL, the CpMax ([5]; CPT-11 180 mg/m^2/wk X4) was 0.0262 µg/mL and the AUC [5, 17] was 62.2 ng·h/mL. The “plasma concentration of HECPT in mice” value [6] was “maintained longer after CPT-11 administration than after treatment with HECPT”, the “anti-tumor activity compared to CPT-11 in vivo” value (P388 tumor) was “little anti-tumor activity” and the “results relative to CPT-11 under the same conditions” value (L1210 leukemia) was “inferior”. The “inhibition of purified topoisomerase I” value [7] was “inhibited”, the “reversibility of cleavable complex stabilization” value (topoisomerase I [8]) was “readily reversible” and the “potency in generating single-strand DNA breaks relative to CPT-11” value (MOLT3 cells) was “approximately 1000 fold”. For the same compound, the “overall fractional concentration of the lactone species through a range of doses” value [9] was “fairly constant”.
In the case of `CCc1c2c(nc3ccc(OC(=O)N4CCC(N5CCCCC5)CC4)cc13)-c1cc3c(c(=O)n1C2)COC(=O)[C@]3(O)CC` [CPT-11, 7-Ethyl-10-[4-(1-piperidino)-1-piperidino]Carbonyloxy-Camptothecin], the “interpatient variability in AUC and metabolism to HECPT” value ([2]; 5-day continuous intravenous infusion) is listed as “large range of interpatient variability”, the “sensitivity of human tumors in relation to ability to produce HECPT” value (human tumors) is listed as “independent of their ability to produce HECPT” and the “Reported Toxicities: N/V” value (Small Cell Lung Cancer) is listed as 61.5%. For the same compound, the “Reported Toxicities: alopecia” value (Small Cell Lung Cancer) was 40.0%, the “Reported Toxicities: diarrhea” value (Small Cell Lung Cancer) was 53.8% and the “Response: CRs” value (Small Cell Lung Cancer) was 2 CRs. For the same compound, the “Response: PRs” value (Small Cell Lung Cancer) was 7 PRs, the “Fractional amount of lactone species, CpMax Based” value (“Fractional amount” below) ([10]; single dose I.V. CPT-11 50 mg/m^2) was 0.51 and the “Fractional amount” value ([10]; single dose I.V. CPT-11 80 mg/m^2) was 0.44. For the same compound, the “Fractional amount” value ([10]; single dose I.V. CPT-11 100 mg/m^2) was 0.53, the “Fractional amount” value ([10]; single dose I.V. CPT-11 125 mg/m^2) was 0.55 and the “Fractional amount” value ([10]; single dose I.V. CPT-11 150 mg/m^2) was 0.42. For the same compound, the “Fractional amount” value ([10]; single dose I.V. CPT-11 180 mg/m^2) was 0.42, the “Reported Toxicities: N/V” value (Cervical cancer) was 51% and the “Reported Toxicities: Neutropenia” value (Cervical cancer) was 89%. For the same compound, the “Reported Toxicities: alopecia” value (Cervical cancer) was 38.1%, the “Reported Toxicities: diarrhea” value (Cervical cancer) was 39.1% and the “Response (complete responses)” value (Cervical cancer) was “SCR”. For the same compound, the “Response: PR” value (Cervical cancer) was 8 PR, the “Reported Toxicities” value [11] was “Neutropenia, diarrhea” and the “Reported Toxicities: pneumonitis” value [11] was 12.5%. The “Response (PRs)” value [11] was 7/15, the “Response Rate” value [11] was 47% and the “Response Rate (RR)” value (Leukemia/Lymphoma; 20 mg/m^2 bid x7) was 25%. For the same compound, the “Response Rate (PR)” value (Leukemia/Lymphoma; 40 mg/m^2 Q0x5) was 34%, the “Response Rate” value (Leukemia/Lymphoma; 200 mg Q3) was “No resp” and the “Reported Toxicities: Gastrointestinal” value (Leukemia/Lymphoma; in vivo) was 76%. The “Reported Toxicities: Neutropenia” value (Leukemia/Lymphoma; in vivo) was 91%, the “Reported Toxicities” value (Leukemia/Lymphoma; incidence not given) was “Thrombocytopenia” and the AUC ([5]; CPT-11 50 mg/m^2/wkx4) was 2970 ng·h/mL. For the same compound, the CpMax ([5]; CPT-11 50 mg/m^2/wkx4) was 1.70 µg/mL, the AUC ([5]; CPT-11 100 mg/m^2/wkx4) was 2230 ng·h/mL and the CpMax ([5]; CPT-11 100 mg/m^2/wkx4) was 1.29 µg/mL. For the same compound, the AUC ([5]; CPT-11 150 mg/m^2/wk X4) was 2810 ng·h/mL, the CpMax ([5]; CPT-11 150 mg/m^2/wk X4) was 1.56 µg/mL and the AUC ([5]; CPT-11 180 mg/m^2/wk X4) was 3830 ng·h/mL. For the same compound, the CpMax ([5]; CPT-11 180 mg/m^2/wk X4) was 1.97 µg/mL, the AUC [5, 17] was 1130 ng·h/mL and the CpMax [5, 17] was 0.89 µg/mL. For the same compound, the “Reported Toxicities: NN” value (Colon cancer) was 35%, the “Reported Toxicities: Neutropenia” value (Colon cancer) was 53% and the “Reported Toxicities: diarrhea” value (Colon cancer) was 24%. For the same compound, the “Response (PR)” value (Colon cancer) was 6/17, the “Response Rate” value (Colon cancer) was 46% and the “inhibition of purified topoisomerase I” value [7] was “inhibited”. For the same compound, the “Reported Toxicities” value [12] was “anorexia, alopecia; also recorded: Neutropenia diarrhea; also recorded: nausea, vomiting”, the “Response (PRs)” value [12] was 23/72 and the “Response Rate” value [12] was 31.9%. For the same compound, the Toxicity (Tumor; Clavel et al, 90 min. QDx3 Q21 days, 115 mg/m^2/d (33-115)) was “Neutropenia* diarrhea; also recorded: nausea and vomiting; also recorded: alopecia”, the “Tumor Type (responses)” value (Tumor; Clavel et al, Breast) was 1 PR and the “Tumor Type (responses)” value (Tumor; Clavel et al, Mesothelioma) was 1 PR. For the same compound, the Toxicity (Tumor; Culine et al, 90 min. Q21 days, 150 mg/m^2/wk (50-150)) was “Neutropenia* diarrhea*; also recorded: vomiting, alopecia; also recorded: fatigue stomatitis”, the “Tumor Type (responses)” value (Tumor; Culine et al, cervix) was 1 PR and the “Tumor Type (responses)” value (Tumor; Culine et al, esophagus) was 1 PR. For the same compound, the “Tumor Type (responses)” value (Tumor; Culine et al, ovarian) was 1 PR, the “Tumor Type (responses)” value (Tumor; Culine et al, renal) was 1 PR and the Toxicity (Tumor; Negoro et al, 30 min infusion, 100 mg/m^2 (50-150)) was “Diarrhea*, N/V”. The “Tumor Type (responses)” value (Tumor; Negoro et al, NS CLC) was 2 PRs, the “Tumor Type (responses)” value (Tumor; Ohe et al, 120 hr CI) was “None” and the Toxicity (Tumor; Rothenberg et al, 90 mg QWx4 Q42 days, 180 mg/m^2/wk (50-180)) was “Neutropenia, nausea; also recorded: vomiting, alopecia”. The “Tumor Type (responses)” value (Tumor; Rothenberg et al, Colon Ca) was 2 PRs, the Toxicity (Tumor; Rowinsky et al, 90 min infusion Q21 day, 240 mg/m^2 (100-345)) was “Neutropenia* vomiting; also recorded: diarrhea abd. pain; also recorded: flushing” and the “Tumor Type (responses)” value (Tumor; Rowinsky et al, Cervix Ca) was 1 PR. For the same compound, the “Tumor Type (responses)” value (Tumor; Rowinsky et al, Colon Ca) was 1 PR, the sporadic toxicities [1] was “less sporadic toxicities” and the “overall fractional concentration of the lactone species through a range of doses” value [9] was “fairly constant”.
For `COc1cc([C@@H]2c3cc4c(cc3[C@@H](O[C@@H]3O[C@@H]5CO[C@@H](C)O[C@H]5[C@H](O)[C@H]3O)[C@H]3COC(=O)[C@H]23)OCO4)cc(OC)c1O` [etoposide], the “bioavailability following oral administration versus intravenous” value [13] is given as “substantially equivalent”.
For `CC[C@@]1(O)C(=O)OCc2c1cc1n(c2=O)Cc2cc3cc4c(cc3nc2-1)OCO4` [10,11 methylene dioxycamptothecin, 10,11 methylenedioxy camptothecin], the “antitumor activity in preclinical studies” value (from here on “antitumor activity”) (preclinical tumor models) is listed as “very active”.
For `CCc1c2c(nc3ccccc13)-c1cc3c(c(=O)n1C2)COC(=O)C3(O)CC` (stereo not drawn) [ECPT, 7-ethyl camptothecin], the “antitumor activity” value (preclinical tumor models) is listed as “broad anticancer activity”, the “results relative to CPT-11 under the same conditions” value (L1210 leukemia) is listed as “inferior” and the solubility in water [14] is listed as “insufficiently water soluble for clinical use”. For the same compound, the “inhibition of Topoisomerase I” value (topoisomerase I [8]) was “potent inhibitor”.
For `CC[C@@]1(O)C(=O)OCc2c1cc1n(c2=O)Cc2cc3ccccc3nc2-1` [lactone form of camptothecin], the “antitumor activity” value (preclinical tumor models) is listed as “significant antitumor activity” and the “toxicity relative to sodium camptothecin” value [15] is listed as 10 fold.
For `CCC(O)(C(=O)O)c1cc2n(c(=O)c1CO)Cc1cc3ccccc3nc1-2` (stereo not drawn) [sodium camptothecin], the “toxicity in Phase II studies” value [16] is given as “unpredictable and severe myelosuppression, gastrointestinal toxicity, hemorrhagic cystitis, and alopecia”.
